A short description of series [1]: Stability of the compound in human AD293 cells assessed as intact compound remaining at 20 uM measured after 5 hrs by LC-MS analysis. The note with it: read-out: Stabilty. The class given is ADME, cell-based.
Series [2] relates to AD293. Kind of series: Cytotoxicity against human AD293 cells assessed as cell viability at 2.7 to 273 uM co-treated via microinjection with Cy5-BSA into nucleus and measured after 5 hrs by Cy5-BSA/PI staining based fluorescence analysis. The settings on record: ad293, 5 h, dose 2.7-273 µM.
Series [3] in a line: Stability of the compound in human AD293 cells assessed as intact compound remaining at 20 uM measured after 24 hrs by LC-MS analysis. The note with it: read-out: Stabilty. The class given is ADME, cell-based.
The test system of series [4] is AD293. Kind of series: Cytotoxicity against human AD-293 cells assessed as morphologically intact viable cells at 2.7 to 273 uM co-treated via microinjection with Cy5-BSA into cytoplasm and measured after 5 hrs by Cy5-BSA/PI staining based fluorescence analysis. It is filed as cell-based. The note with it: ad293, 5 h, dose 2.7-273 µM.
Series [5] concerns AD293. Nature of the series: Cytotoxicity against human AD293 cells assessed as cell viability at 2.7 to 273 uM co-treated via microinjection with Cy5-BSA into cytoplasm and measured after 5 hrs by Cy5-BSA/PI staining based fluorescence analysis. The note with it: ad293, 5 h, dose 2.7-273 µM.
The test system of series [6] is AD293. Kind of series: Cytotoxicity against human AD293 cells assessed as cell viability at 200 uM. It is filed as cell-based. The settings on record: ad293, 200 µM.
Series [7] is described as follows: Inhibition of iNOS (unknown origin) and SPSB2 interaction assessed as binding affinity to murine SPSB2 immobilized on CM5 chip by SPR assay. Details: species or system Mus musculus; call rule not given here. On the technique in general: SPR reads the build-up and loss of mass on a sensor chip optically.
Series [8] in a line: Drug localization in cytosol of human AD293 cells at 7.3 uM treated via microinjection into cytoplasm measured up to 5 hrs by confocal microscopic analysis. The class given is ADME, subcellular.

Where a SMILES comes first, the peptide text is derived from it. [ ]: non-standard residue; d: D form. The star is where a group is joined. X1 = CCN1/C(=C/C=C/C=C/C2=[N+](CCCCCC(=O)*)c3ccc(S(=O)(=O)[O-])cc3C2(C)C)C(C)(C)c2cc(S(=O)(=O)O)ccc21; βAla = NCCC(=O)O

One may read the Kd as the equilibrium constant for the complex coming apart. `CC[C@H](C)[C@@H]1NC(=O)[C@H](CC(=O)O)NC(=O)[C@H](Cc2c[nH]c3ccccc23)NC(=O)CCNC(=O)[C@H](CC(N)=O)NC(=O)[C@H](CC(N)=O)NC(=O)[C@H](CC(N)=O)NC1=O` (cyclo(DINNN[βAla]W)): in series [1], the remaining at 5 h, 20 µM was 97.5%. The Activity result in series [2], in series [4], in series [5] and in series [6] was “Non-Toxic” throughout. The remaining at 24 h, 20 µM in series [3] was 94.7%. For the same compound, the Kd in series [7] came out at 21 nM.
Take `CCN1/C(=C/C=C/C=C/C2=[N+](CCCCCC(=O)NCCCC[C@@H]3NC(=O)[C@H](CC(=O)O)NC(=O)[C@H](Cc4c[nH]c5ccccc45)NC(=O)CCNC(=O)[C@H](CC(N)=O)NC(=O)[C@H](CC(N)=O)NC(=O)[C@H](CC(N)=O)NC3=O)c3ccc(S(=O)(=O)[O-])cc3C2(C)C)C(C)(C)c2cc(S(=O)(=O)O)ccc21` (cyclo(DK(X1)NNN[βAla]W)): the Kd in series [7] amounted to 110 nM. Further, the Drug uptake result in series [8] was “Active”.

These data come from ChEMBL document CHEMBL4673356, “Assessing the cellular toxicity of peptide inhibitors of intracellular protein-protein interactions by microinjection” (Bioorg Med Chem, 2021).
